Reference: PMC9384988, “The TPR domain of PgaA is a multifunctional scaffold that binds PNAG and modulates PgaB-dependent polymer processing” (PLoS Pathogens, 2022)

Experiments:
[1] = molecular target: T1, PgaA-32-367 (Escherichia coli, UniProt P69434); experiment: Direct ESI-MS binding assay, PgaA-32-367; set-up: species or system E. coli; details: 25°C and pH 7, direct ESI-MS assay; for Kd: read-out: Kd, TPR region 32–367
T1 construct: His6 (thrombin cleavable, pET28) (N); made in house; host or cells: E. coli BL21 CodonPlus
T1 sequence (P69434 32-367): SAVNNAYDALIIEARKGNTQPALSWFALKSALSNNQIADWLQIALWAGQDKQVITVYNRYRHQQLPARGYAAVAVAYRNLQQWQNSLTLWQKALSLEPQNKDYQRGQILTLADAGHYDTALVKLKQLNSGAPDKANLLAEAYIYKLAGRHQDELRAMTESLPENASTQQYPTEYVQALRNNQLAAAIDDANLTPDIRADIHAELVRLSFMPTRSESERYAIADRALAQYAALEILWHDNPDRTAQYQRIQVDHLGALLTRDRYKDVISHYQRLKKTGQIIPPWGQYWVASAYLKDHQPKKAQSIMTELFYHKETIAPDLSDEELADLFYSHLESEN
Description: (§1) Solutions of PgaA220-367 (5.7 μM) and PgaA32-367 (11.6 μM) were used for binding assay. […] Binding measurements were carried out in positive ion mode using a Synapt G2S ESI-Q-IMS-TOF mass spectrometer (Waters, Manchester, UK) equipped with nanoflow ESI (nanoESI) source. NanoESI was performed by applying a voltage of ~1 kV to a platinum wire inserted into the nanoESI tip, which was produced from a borosilicate glass capillary (1.0 mm o.d., 0.68 mm i.d.) pulled to ~5 μm o.d. using a P−1000 micropipette puller (Sutter Instruments, Novato, CA). The source temperature and gas flow rate was 60°C and 2 mL/min, respectively. The Cone, Trap and Transfer voltages were 20 V, 3 V and 1 V, respectively. MassLynx software (version 4.1) was used for data acquisition and processing.
(§2) The Kd for protein (P)—ligand (L) binding was calculated from the abundance ratio of L-bound to free P ions (i.e., R), measured by ESI-MS: R = Ab(PL)/Ab(P) = [PL]/[P], Kd = [P][L]/[PL] = [L]0/R—[P]0/(R+1), where [P]0 and [L]0 are initial concentrations of protein and ligand, correspondingly. Non-specific protein-ligand binding was corrected as published.

[2] = molecular target: PgaA-32-220; experiment: ESI-MS binding test, PgaA-32-220; set-up: species or system E. coli; details: sample partially degraded
Description: PgaA32-220 was analyzed using the SolariX 15 T FT-ICR mass spectrometer (Bruker-Daltonics, Billerica, MA), equipped with a dynamically harmonized ParaCell and nanoESI source. […] The instrumental parameters for these measurements were: glass capillary exit voltage (200 V); source drying gas (N2, 4 L/min and 120°C); deflector plate (220 V). The RF amplitude of the ion-funnels was 300 V peak-to-peak, and the applied voltages were 150 V and 6 V for funnels 1 and 2, respectively. The voltage of skimmer 1 was 30 V and the skimmer 2 voltage was 5 V. Accumulation time in the hexapole collision cell was 0.7 s; the time-of-flight was 2 ms. The operating pressure in UHV region was ~5×10^−10 mbar. Data acquisition was performed using the FtmsControl software (version 2.2). The time-domain signal, consisting of the sum of 25 transients, containing 2M data points per transient, was subjected to one zero-fill prior to Fourier-transform.

[3] = molecular target: T2, PgaA-220-367 (Escherichia coli, UniProt P69434); experiment: Direct ESI-MS binding assay, PgaA-220-367; set-up: species or system E. coli; details: 25°C and pH 7, direct ESI-MS assay; for Kd: read-out: Kd, TPR region 220–367
T2 construct: His6 (thrombin cleavable, pET28) (N); made in house; host or cells: E. coli BL21 CodonPlus (DE3)
T2 sequence (P69434 220-367): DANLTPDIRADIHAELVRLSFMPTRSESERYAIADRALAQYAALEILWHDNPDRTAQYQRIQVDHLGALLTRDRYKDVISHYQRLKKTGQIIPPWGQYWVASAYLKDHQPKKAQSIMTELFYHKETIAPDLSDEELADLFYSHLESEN
Description: as §1, §2

[4] = molecular target: T3, His-PgaA (PgaA-32-807) (E. coli K-12, UniProt P69434 32-807)
T3 construct: also called His-PgaA-32-807; full-length PgaA; source: E. coli BL21: co-expressed with PgaB, in DDM extract of the lysate pellet (pull-down); expressed alone or with PgaB and purified (NiNTA, gel filtration, DDM); not shown: His6, N-terminal, kept
T3 sequence (looked up): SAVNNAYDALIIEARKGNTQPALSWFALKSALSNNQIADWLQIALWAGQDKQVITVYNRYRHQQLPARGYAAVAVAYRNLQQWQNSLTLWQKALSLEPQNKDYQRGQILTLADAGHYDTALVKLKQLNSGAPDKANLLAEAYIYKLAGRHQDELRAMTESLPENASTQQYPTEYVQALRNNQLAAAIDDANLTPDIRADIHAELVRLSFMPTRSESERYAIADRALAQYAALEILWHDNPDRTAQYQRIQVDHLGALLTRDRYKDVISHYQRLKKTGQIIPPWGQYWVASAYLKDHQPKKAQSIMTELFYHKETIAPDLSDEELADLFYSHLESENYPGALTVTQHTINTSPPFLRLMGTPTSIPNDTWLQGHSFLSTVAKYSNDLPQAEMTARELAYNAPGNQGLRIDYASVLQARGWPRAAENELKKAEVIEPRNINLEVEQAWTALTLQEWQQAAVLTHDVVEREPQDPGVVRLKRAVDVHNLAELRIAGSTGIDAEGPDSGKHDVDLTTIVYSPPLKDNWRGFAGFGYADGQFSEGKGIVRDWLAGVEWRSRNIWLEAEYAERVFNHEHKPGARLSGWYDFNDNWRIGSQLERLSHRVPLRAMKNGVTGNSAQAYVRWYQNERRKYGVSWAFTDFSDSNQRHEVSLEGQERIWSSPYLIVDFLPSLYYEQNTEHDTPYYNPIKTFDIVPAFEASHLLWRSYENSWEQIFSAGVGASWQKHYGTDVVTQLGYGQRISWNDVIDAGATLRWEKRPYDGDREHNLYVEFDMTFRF

[5] = Fluorescamine de-acetylation assay; type: biochemical; details: 30 μM enzyme and 30 mM PNAG hexamer; fluorescamine readout
Description: To determine whether the modulation of enzyme activity might be a common theme for the TPR domain across synthase-dependent systems, we assayed the deacetylase and glycoside hydrolase activities of PgaB in the presence and absence of PgaA. As we used co-expression to obtain the complexes, a SDS PAGE gel of the purified solutions of PgaA, PgaB and PgaA/B complexes was analyzed to ensure that equal quantities of the protein/protein complex were used (Fig 2A). Consistent with previous published studies, PgaA and PgaB appear to form a 1:1 complex. The deacetylase activity was assessed using a fluorescamine-based assay with fully acetylated PNAG hexamers as the substrate. As fluorescamine detects the presence of primary amines, which are generated during the deacetylation of the PNAG oligosaccharide, this assay provides a direct readout of the deacetylation activity of PgaB. To assess the glycoside hydrolase activity, we used a biofilm disruption assay, which has been used previously to characterize PgaB’s glycosidase activity. In this assay, biofilms of Staphylococcus epidermidis strain SE801 were grown in 96 well plates for 24 h, at which point PgaB was added. After a further 2 h, the reaction was quenched, plates washes and the amount of adherent biofilm remaining quantified using crystal violet staining. […]

Row | Molecule | Kd [1] [µM] | binding to TPR region 32–220 [2] | Kd [3] [µM] | also measured
1 | CC(=O)N[C@H]1[C@H](OC[C@H]2O[C@@H](OC[C@H]3O[C@@H](OC[C@H]4O[C@@H](OC[C@H]5OC(O)[C@H](NC(C)=O)[C@@H](O)[C@@H]5O)[C@H](NC(C)=O)[C@@H](O)[C@@H]4O)[C@H](NC(C)=O)[C@@H](O)[C@@H]3O)[C@H](NC(C)=O)[C@@H](O)[C@@H]2O)O[C@H](CO)[C@@H](O)[C@@H]1O (stereo partly shown) | 10000 | No binding | 1700 | 
2 | CC(=O)N[C@H]1[C@H](OC[C@H]2O[C@@H](OC[C@H]3O[C@@H](OC[C@H]4O[C@@H](OC[C@H]5OC(O)[C@H](NC(C)=O)[C@@H](O)[C@@H]5O)[C@H](NC(C)=O)[C@@H](O)[C@@H]4O)[C@H](N)[C@@H](O)[C@@H]3O)[C@H](NC(C)=O)[C@@H](O)[C@@H]2O)O[C@H](CO)[C@@H](O)[C@@H]1O (stereo partly shown) [(GlcNAc)2-GlcN-(GlcNAc)2] | 2300 | No binding | 1300 | 
3 | CC(=O)N[C@H]1[C@H](O[C@H]2[C@@H](O)[C@@H](CO)O[C@@H](O[C@@H]([C@H](O)[C@@H](O)C=O)[C@H](O)CO)[C@@H]2O)O[C@H](CO)[C@@H](O)[C@@H]1O[C@@H]1O[C@H](CO)[C@H](O)[C@H](O)[C@H]1O[C@@H]1O[C@@H](C)[C@@H](O)[C@@H](O)[C@@H]1O [LNF1, lacto-N-fucopentaose, reference compound] |  |  |  | Kd, TPR region 32–367 [1]: No binding; Kd, TPR region 220–367 [3]: No binding
4 | PgaB-22-672 (soluble form of PgaB) (from UniProt P75906 22-672) (enzyme) |  |  |  | fluorescamine-based deacetylation assay with PNAG hexamer, concentration of GlcN produced (PgaA+B, individually purified and mixed) [4]: 1290 µM
5 | PgaA: E. coli PgaA residues 32–807, TPR domain plus outer membrane porin (protein, left off: His6, N-terminal, kept, E. coli PgaA residues 32–807, TPR domain plus outer membrane porin) SAVNNAYDALIIEARKGNTQPALSWFALKSALSNNQIADWLQIALWAGQDKQVITVYNRYRHQQLPARGYAAVAVAYRNLQQWQNSLTLWQKALSLEPQNKDYQRGQILTLADAGHYDTALVKLKQLNSGAPDKANLLAEAYIYKLAGRHQDELRAMTESLPENASTQQYPTEYVQALRNNQLAAAIDDANLTPDIRADIHAELVRLSFMPTRSESERYAIADRALAQYAALEILWHDNPDRTAQYQRIQVDHLGALLTRDRYKDVISHYQRLKKTGQIIPPWGQYWVASAYLKDHQPKKAQSIMTELFYHKETIAPDLSDEELADLFYSHLESENYPGALTVTQHTINTSPPFLRLMGTPTSIPNDTWLQGHSFLSTVAKYSNDLPQAEMTARELAYNAPGNQGLRIDYASVLQARGWPRAAENELKKAEVIEPRNINLEVEQAWTALTLQEWQQAAVLTHDVVEREPQDPGVVRLKRAVDVHNLAELRIAGSTGIDAEGPDSGKHDVDLTTIVYSPPLKDNWRGFAGFGYADGQFSEGKGIVRDWLAGVEWRSRNIWLEAEYAERVFNHEHKPGARLSGWYDFNDNWRIGSQLERLSHRVPLRAMKNGVTGNSAQAYVRWYQNERRKYGVSWAFTDFSDSNQRHEVSLEGQERIWSSPYLIVDFLPSLYYEQNTEHDTPYYNPIKTFDIVPAFEASHLLWRSYENSWEQIFSAGVGASWQKHYGTDVVTQLGYGQRISWNDVIDAGATLRWEKRPYDGDREHNLYVEFDMTFRF |  |  |  | concentration of GlcN produced [5]: 73.8 ± 6.3 µM
